PMC11050599, “Novel Tetracyclic Azaphenothiazines with the Quinoline Ring as New Anticancer and Antibacterial Derivatives of Chlorpromazine” (International Journal of Molecular Sciences, 2024)
In brackets after ≈: the same amount, converted by molar mass.

Key:
E. coli ATCC 25922 = assay: MIC broth microdilution; assay type: cell-based; conditions: Escherichia coli, ATCC25922; 19 h, 35 °C; read-out: MIC E. coli ATCC 25922
From the text: (§1) To evaluate the antibacterial effectiveness of chloroquinobenzothiazine derivatives, various bacterial strains from international microbe collections such as the American Type Culture Collection (ATCC) and the National Collection of Type Culture (NCTC) were examined, alongside a panel of clinical rods. This included two Gram-negative organisms, E. coli ATCC 25922 and P. aeruginosa ATCC 15442, and a series of six Gram-positive strains: S. aureus NCTC 4163; S. aureus ATCC 29213, 25923, and 6538; and S. epidermidis ATCC 12228 and 35984. […] The MIC was determined using the two-fold serial broth microdilution method in 96-well microtitration plates containing Mueller-Hinton II broth medium (Becton Dickinson, Franklin Lakes, NJ, USA). The final inoculum for all tested bacteria was adjusted to […] (colony-forming units per milliliter). The stock solution of the tested compounds was prepared in dimethyl sulfoxide (DMSO) and diluted to a maximum of 1% solvent content with a sterile medium.

S. aureus ATCC 29213 = assay: MIC broth microdilution; assay type: cell-based; conditions: Staphylococcus aureus, ATCC29213; 19 h, 35 °C; read-out: MIC S. aureus ATCC 29213
From the text: as §1

S. aureus NCTC 4163 = assay: MIC broth microdilution; assay type: cell-based; conditions: Staphylococcus aureus, NCTC4163; 19 h, 35 °C; read-out: MIC S. aureus NCTC 4163
From the text: as §1

S. aureus ATCC 6538 = assay: MIC broth microdilution; assay type: cell-based; conditions: Staphylococcus aureus, ATCC6538; 19 h, 35 °C; read-out: MIC S. aureus ATCC 6538
From the text: as §1

[1] = tested on: S. epidermidis ATCC 35984; assay: MIC broth microdilution; assay type: cell-based; conditions: Staphylococcus epidermidis, ATCC35984; 19 h, 35 °C; read-out: MIC S. epidermidis ATCC 35984
From the text: as §1

P. aeruginosa ATCC 15442 = assay: MIC broth microdilution; assay type: cell-based; conditions: Pseudomonas aeruginosa, ATCC15442; 19 h, 35 °C; read-out: MIC P. aeruginosa ATCC 15442
From the text: as §1

[2] = tested on: S. epidermidis ATCC 12228; assay: MIC broth microdilution; assay type: cell-based; conditions: Staphylococcus epidermidis, ATCC12228; 19 h, 35 °C; read-out: MIC S. epidermidis ATCC 12228
From the text: as §1

S. aureus ATCC 25923 = assay: MIC broth microdilution; assay type: cell-based; conditions: Staphylococcus aureus, ATCC25923; 19 h, 35 °C; read-out: MIC S. aureus ATCC 25923
From the text: as §1

A549 (lung cancer) = assay: MTT assay, A549 cells; assay type: cell-based, human; conditions: for IC50: Homo sapiens, A549, MTT, 72 h, mean SD, read-out: IC50 A549; for SI A549: SI = IC50 for normal cell line (HaCaT)/IC50 cancer cell line
Procedure: (§2) The human cell lines, such as A549 (lung cancer), MDA-MB-231 (breast cancer), MiaPaca-2 (pancreatic cancer), PC3 (metastatic prostate cancer), HCT-116 (colon carcinoma), and HaCaT (immortalized keratinocytes), were sourced from the American Type Culture Collection (ATCC) in Rockville, USA. Culturing conditions varied as follows: HCT116 cells were cultured in MEM (ThermoSci, Waltham, MA, USA), A549, MDA-MB-231, MiaPaca, HaCaT cells in DMEM High Glucose and PC3 cells were cultured in RPMI (Biowest SAS, Nuaillé, France). The growth medium consisted of 10% fetal bovine serum (FBS, Sigma-Aldrich, St. Louis, MO, USA), 20 mM HEPES (Biowest, Nuaillé, France), and antibiotics (100 U/mL of penicillin and 100 μg/mL of streptomycin) from Gibco, Grand Island, NY, USA. […] These compounds were added to 96-well plates containing study cells (1 × 10^4 cells per well) and incubated for 72 h. […] Cell absorbance results were incorporated into the formula for calculating the relative MTT level (%), enabling the assessment of cell viability following exposure to the test compounds. The cell viability percentage represents the MTT reduction in cells treated with the test compounds compared to the control sample, where only the medium was added to the cells.

[3] = tested on: HaCaT (immortalized human keratinocytes); assay: MTT assay, HaCaT normal cells; assay type: cell-based; conditions: Homo sapiens, HaCaT; MTT, 72 h, normal cells; read-out: IC50 HaCaT (Table 3)
Procedure: as §2

[4] = tested on: MDA-MB-231 (breast cancer); assay: MTT assay, MDA-MB-231 cells; assay type: cell-based, human; conditions: for IC50: Homo sapiens, MDA-MB-231, MTT, 72 h, MDA-MB231, read-out: IC50 MDA; for SI MDA: SI = IC50 for normal cell line (HaCaT)/IC50 cancer cell line
Procedure: as §2

| SMILES | MIC (E. coli ATCC 25922) | MIC (S. aureus ATCC 29213) | MIC (S. aureus NCTC 4163) | MIC (S. aureus ATCC 6538) | MIC [1] | MIC (P. aeruginosa ATCC 15442) | MIC [2] | MIC (S. aureus ATCC 25923) | IC50 (A549 (lung cancer)) | SI A549 (A549 (lung cancer)) | IC50 [3] | IC50 [4] | SI MDA [4] |
| --- | --- | --- | --- | --- | --- | --- | --- | --- | --- | --- | --- | --- | --- |
| Clc1ccc2c(c1)N(Cc1cn(CSc3ccccc3)nn1)c1nc3ccccc3cc1S2 [Compound 33, 8-Chloro-6-((1-((phenylthio)methyl)-1H-1,2,3-triazol-4-yl)methyl)-quino[3,2-b]benzo[1,4]thiazine] | > 256 µg/mL | > 256 µg/mL | > 256 µg/mL | > 256 µg/mL | > 256 µg/mL | > 256 µg/mL | > 256 µg/mL | > 256 µg/mL | > 100 µM | 1.0 | > 100 µM | > 100 µM | 1.0 |
| N#Cc1ccc(Cn2cc(CN3c4cc(Cl)ccc4Sc4cc5ccccc5nc43)nn2)cc1 [Compound 32, 4-((4-((8-Chloroquino[3,2-b]benzo[1,4]thiazin-6-yl)methyl)-1H-1,2,3-triazol-1-yl)methyl)benzonitrile] | > 256 µg/mL | > 256 µg/mL | > 256 µg/mL | > 256 µg/mL | > 256 µg/mL | > 256 µg/mL | > 256 µg/mL | > 256 µg/mL | > 100 µM | 1.0 | > 100 µM | > 100 µM | 1.0 |
| C#CCN1c2cc(Cl)ccc2Sc2cc3ccccc3nc21 [Compound 26, 8-chloro-6-propynyquinobenzothiazine] | > 256 µg/mL | > 256 µg/mL | > 256 µg/mL | > 256 µg/mL | > 256 µg/mL | > 256 µg/mL | > 256 µg/mL | > 256 µg/mL | > 100 µM | 1.0 | 71.7 ± 5.7 µM | 95.8 ± 9.2 µM | 0.7 |
| CC(=O)NCCCCN1c2cc(Cl)ccc2Sc2cc3ccccc3nc21 [Compound 17, N-(4-(8-Chloroquino[3,2-b]benzo[1,4]thiazin-6-yl)butyl)acetamide] | > 256 µg/mL | > 256 µg/mL | > 256 µg/mL | > 256 µg/mL | > 256 µg/mL | > 256 µg/mL | > 256 µg/mL | > 256 µg/mL | 82.3 ± 6.2 µM | 1.2 | > 100 µM | > 100 µM | 1.0 |
| CC(=O)NCCCN1c2cc(Cl)ccc2Sc2cc3ccccc3nc21 [Compound 16, N-(3-(8-Chloroquino[3,2-b]benzo[1,4]thiazin-6-yl)propyl)acetamide] | > 256 µg/mL | > 256 µg/mL | > 256 µg/mL | > 256 µg/mL | > 256 µg/mL | > 256 µg/mL | > 256 µg/mL | > 256 µg/mL | 24.6 ± 6.1 µM | 4.1 | > 100 µM | 76.6 ± 8.9 µM | 1.3 |
| CCN(CC)CCN1c2cc(Cl)ccc2Sc2cc3ccccc3nc21 [Compound 7, 2-(8-Chloroquino[3,2-b]benzo[1,4]thiazin-6-yl)-N,N-diethylethan-1-amine] | > 256 µg/mL | 8 µg/mL (≈ 20.8 µM) | 8 µg/mL (≈ 20.8 µM) | 8 µg/mL (≈ 20.8 µM) | 8 µg/mL (≈ 20.8 µM) | > 256 µg/mL | 8 µg/mL (≈ 20.8 µM) | 8 µg/mL (≈ 20.8 µM) | 27.2 ± 8.4 µM | 3.7 | > 100 µM | > 100 µM | 1.0 |
| CCOC(=O)NCCCCN1c2cc(Cl)ccc2Sc2cc3ccccc3nc21 [Compound 19, Ethyl(4-(8-chloroquino[3,2-b]benzo[1,4]thiazin-6-yl)butyl)carbamate] | > 256 µg/mL | > 256 µg/mL | > 256 µg/mL | > 256 µg/mL | > 256 µg/mL | > 256 µg/mL | > 256 µg/mL | > 256 µg/mL | > 100 µM | 1.0 | > 100 µM | > 100 µM | 1.0 |
| Cc1ccc(S(=O)(=O)NCCCN2c3cc(Cl)ccc3Sc3cc4ccccc4nc32)cc1 [Compound 24, N-(3-(8-Chloroquino[3,2-b]benzo[1,4]thiazin-6-yl)propyl)-4-methylbenzenesulfonamide] | > 256 µg/mL | > 256 µg/mL | > 256 µg/mL | > 256 µg/mL | > 256 µg/mL | > 256 µg/mL | > 256 µg/mL | > 256 µg/mL | > 100 µM | 1.0 | > 100 µM | > 100 µM | 1.0 |
| CS(=O)(=O)NCCCN1c2cc(Cl)ccc2Sc2cc3ccccc3nc21 [Compound 22, N-(3-(8-Chloroquino[3,2-b]benzo[1,4]thiazin-6-yl)propyl)methanesulfonamide] | > 256 µg/mL | > 256 µg/mL | > 256 µg/mL | > 256 µg/mL | > 256 µg/mL | > 256 µg/mL | > 256 µg/mL | > 256 µg/mL | > 100 µM | 1.0 | > 100 µM | > 100 µM | 1.0 |
| FC(F)(F)c1ccc(-n2cc(CN3c4cc(Cl)ccc4Sc4cc5ccccc5nc43)nn2)cc1 [Compound 28, 8-Chloro-6-((1-(4-(trifluoromethyl)phenyl)-1H-1,2,3-triazol-4-yl)methyl)-quino[3,2-b]benzo[1,4]thiazine] | > 256 µg/mL | > 256 µg/mL | > 256 µg/mL | > 256 µg/mL | > 256 µg/mL | > 256 µg/mL | > 256 µg/mL | > 256 µg/mL | > 100 µM | 1.0 | > 100 µM | > 100 µM | 1.0 |
